Source: the pKa sets of Baltruschat and Czodrowski (2020)

Settings: basic group

Compound	pKa
Nc1cc(Cl)cc(C[NH3+])c1	3.54
COc1c(Cl)cc(Cl)c([O-])c1C(=O)NC1CCN(C)CC1	9.12
CC(C)(C)NC1CCCCC1	11.3
CC(CN1CCCC(C)(C)C1)Nc1ccccn1 (configuration not stated)	9.23
O=Cc1ccc(-c2cnc(-c3ccccc3)o2)cc1	0.57
Cc1ccc(C(=O)S)cc1	-5.19
O=C([O-])c1cccc2cc3ccccc3nc12	7.72
O=C([O-])CN=C1CCCCC1	9.48
Clc1ccnc2c1ccc1c(Cl)ccnc12	3.03
CN(C)c1nc2c(o1)CCCC2	6.16
C[C@H](CCCNCc1ccccc1)[C@H]1CC[C@H]2[C@@H]3CC[C@@H]4C[C@H](O)CC[C@]4(C)[C@H]3C[C@H](O)[C@]12C	9.07
C[C@@H]1[C@@H]2Cc3ccc(O)cc3[C@@]1(C)CCN2CCF	8.35
N#CCN1CCOCC1	2
OCCN1CCOCC1	7.18
NCCCCCC(=O)[O-]	10.8
CC(=O)CCCCN(C)C	9.66
CC[C@H](C)[C@H](N)C(=O)[O-]	9.77
Cc1ncc(CO)c(CN)c1[O-]	10.3
CCOCCNc1ccc(Cl)cc1	3.28
CCC(N)(CO)CO	8.8
CCOCCn1c(CN2CCCN(CCCCn3cccn3)CC2)nc2ccccc21	9.2

Compound	pKa
COc1cc2c(cc1OC)[C@]13CCN4CC5=CCO[C@H]6CC(=O)N2[C@H]1C6[C@@]5(S(=O)(=O)[O-])C[C@H]43 (some centres not stated)	7.45
CN(C)Cc1cc(Cl)ccc1[O-]	11
CC(C)c1ccccn1	5.83
CCn1nc(-c2ccccc2)sc1=N	6.1
Cc1nnc2c(c1C)CCC2	5.36
CN1CCc2cccc(c2)CCc2ccc1cc2	6.76
CC(C)([NH3+])CN	6.79
CCCCCCCCCCCCCCCC(=O)N[C@@H](Cc1c[nH]cn1)C(=O)[O-]	6.2
CCOC(=O)CC(NC)c1ccccc1 (configuration not stated)	8.23
C=C(C)C(=O)OCCNC	8.96
O=[N+]([O-])c1ccc(-n2cnnn2)cc1	-3.92
C[C@H](CCCN)[C@H]1CC[C@H]2[C@@H]3CC[C@@H]4C[C@H](O)CC[C@]4(C)[C@H]3CC[C@]12C	9.7
CCc1c(C)nnc(C)c1C	5.17
CCCCNCC(=O)[O-]	10.2
C[Si](C)(C)OC1CN(C2CCCCC2)C1	9.02
COC(=O)C1=CN2CCC1CC2	7.17
CO/N=C(\C)CC(C)(C)NCC[NH2+]C(C)(C)C/C(C)=N/O	6.28
CCC(=O)OC(C)CN(C)C (configuration not stated)	8.26
CNCC[S-]	10.8
COC(=O)C1=CCCNC1	8.7
c1ccc2cc(NCC[NH2+]c3ccc4ccccc4c3)ccc2c1	1.8

Compound	pKa
C[C@@H]1CCCC[C@@H]1N	10.6
C[NH2+]CCNCCN	9.57
Cc1cc(-c2ccccc2)n[n+](CCN2CCOCC2)c1N	4.84
CN(C)CCCCCCNC(=O)/C=N/[O-]	10.4
c1cc2[nH]cnc2cn1	6.1
CN(C)CC[N-]S(=O)(=O)c1cccc2c(N(C)C)cccc12	10.9
N#CC1CC2CCN1CC2 (configuration not stated)	5.85
CCCCCCCCCCCCCCCCN	10.6
CCc1cc(Cl)c([O-])c(C(=O)NC[C@H]2CCCN2CC)c1OC	9.54
Cc1ccc(S(=O)(=O)[N-]CCC(=N)N(C)C)cc1	11.4
CC1(C)SCNC1C(=O)[O-] (configuration not stated)	6.34
Nc1c([N+](=O)[O-])ccc2ccccc12	-1.6
Oc1ccc(F)cc1CN1CCOCC1	6.78
OC(c1ccccc1)c1ccccn1 (configuration not stated)	4.44
CC(C)NCCCCCCNC(C)C	11.2
Cc1cc([S-])ncn1	7.3
CN(C)c1ccc2cc3ccc(N(C)C)cc3[nH+]c2c1	0.4
CCN(CC)CCSCC(C)C	8.83
CN(C1=NCCCO1)c1ccccc1	10.7
CN1CC1	7.86
C=CCNCCCCCCCCCCC(=O)[O-]	9.3

Compound	pKa
C[n+]1cnc2nc([O-])cnc2c1[O-]	6.19
COc1ccc2c3c1O[C@H]1[C@@H](O)C=C[C@H]4[C@@H](C2)N(C)CC[C@@]341	8.05
CCOc1ccc2[nH]c(CC)nc2c1	6.27
[O-]c1nccc2nccnc12	11.1
COc1ccc2c(c1)CCN2	6.1
CC(N)CCCc1ccccc1 (configuration not stated)	9.99
C[C@@H]1C[C@H](OC(=O)c2ccccc2)CC(C)(C)N1	8.97
CN(c1ccccc1)C1CCCCC1	6.35
CCN(CC)N(C)C	6.88
C[NH+](C)CC(C)(C)CN	7.4
NCCC(=O)N[C@@H](Cc1c[nH]cn1)C(=O)[O-]	9.61
CC(C)N(CC1CO1)CC1CO1 (configuration not stated)	7.07
Cc1cnc2c(ccc3cccnc32)c1C	5.62
CNc1ccc(OC)cc1	5.93
c1ccc(-c2ccc3ncc(CN4CCOCC4)n3n2)cc1	6.21
NCCNCCO	9.67
O=C(Cc1cccnc1)c1ccccc1	4.87
CNC(C(=O)[O-])C(C)C (configuration not stated)	9.9
Nc1ccccc1Br	2.4
